Counter-ions that a name gives are not always drawn.
The molecules below were run on IRE1-XBP1s (assay: IRE1-XBP1s activation Assay (XBP1-RLuc splicing reporter, HEK293 T-REx cells)). Details: compound 10 μM, 18 h, HEK293 T-REx cells stably expressing XBP1-RLuc splicing reporter, relative to thapsigargin (Tg) 500 nM, read-out: Activity (IRE1-XBP1s Activation; luminescence as percentage signal relative to thapsigargin).
Format: cell-based
Method: IRE1-XBP1s activation Assay: HEK293 T-REx cells stably expressing the XBP1-RLuc splicing reporter were treated with an IRE1—XBP1s activator provided herein (10 μM) in the presence or absence of the IRE1 active site inhibitor 4 μ8C (32 μM) for 18 h. Luminescence was shown as the percentage signal relative to thapsigargin (Tg) (500 nM, 18 h).

Row | SMILES | activation at 10 µM [%]
1 | CN(CCOc1ccccn1)C(=O)Cn1cc(NC(=O)CCOc2ccccc2)cn1 [Compound 38] | < 30
2 | Cc1ccc(OCCN(C)C(=O)Cn2cc(NC(=O)CCOc3ccc(Cl)cc3)cn2)cc1 [Compound 45] | 30 to 50
3 | Cc1ccc(OCCN(C)C(=O)Cn2cc(NC(=O)CCOc3ccc(N)cc3)cn2)cc1 [Compound 37] | ≥ 50
4 | Cc1ccc(OCCN(C)C(=O)Cn2cnc(NC(=O)CCOc3ccc(F)cc3)c2)cc1 [Compound 16] | ≥ 50
5 | Cc1ccc(OCCN(C)C(=O)Cn2cc(NC(=O)CCOc3ccccc3F)cn2)cc1 [Compound 34] | ≥ 50
6 | CN(CCc1ccccc1)C(=O)Cn1cc(NC(=O)CCOc2ccccc2)cn1 [Compound 27, N-(1-(2-(methyl(phenethyl)amino)-2-oxoethyl)-1H-pyrazol-4-yl) -3-phenoxypropanamide hydrochloride] | < 30
7 | COc1ccc(OCCC(=O)Nc2ccn(CC(=O)N(C)CCOc3ccc(C)cc3)n2)cc1 [Compound 51] | < 30
8 | Cc1ccc(OCCN(C)C(=O)Cn2cc(NC(=O)CCOc3cccc(F)c3)cn2)cc1 [Compound 36] | ≥ 50
9 | Cc1ccc(OCCN(C)C(=O)Cn2ccc(NC(=O)CCOc3ccccc3)n2)cc1 [Compound 50, N-(1-(2-(methyl(2-(p-tolyloxy)ethyl)amino)-2-oxoethyl)-1H -pyrazol-3-yl)-3-phenoxypropanamide] | < 30
10 | CN(C(=O)Cn1cc(NC(=O)CCOc2ccccc2)cn1)c1ccccc1 [Compound 28, N-(1-(2-(Methyl(phenyl)amino)-2-oxoethyl)-1H-pyrazol-4-yl)-3-phenoxypropanamide hydrochloride] | < 30
11 | Cc1ccc(OCCN(C)C(=O)Cn2cc(NC(=O)CCc3ccccc3)cn2)cc1 [Compound 25, N-(1-(2-(Methyl(2-(p-tolyloxy)ethyl)amino)-2-oxoethyl)-1H -pyrazol-4-yl)-3-phenylpropanamide hydrochloride] | 30 to 50
12 | Cc1ccc(OCCN(C)C(=O)Cn2nc(C)c(NC(=O)CCOc3ccccc3)c2C)cc1 [Compound 47] | < 30
13 | CN(CCOc1ccc(C2(C(F)(F)F)N=N2)cc1)C(=O)Cn1cc(NC(=O)CCOc2ccccc2)cn1 [Compound 40] | < 30
14 | CN(CCOc1ccc(C(F)(F)F)cn1)C(=O)Cn1cc(NC(=O)CCOc2ccccc2)cn1 [Compound 39] | 30 to 50
15 | CN(CCCc1ccc(C(F)(F)F)cc1)C(=O)Cn1cc(NC(=O)CCOc2ccccc2)cn1 [Compound 31] | < 30
16 | COc1ccc(OCCC(=O)Nc2cnn(CC(=O)N(C)CCOc3ccc(C)cc3)c2)cc1 [Compound 10] | ≥ 50
17 | CN(CCOc1ccc(C(F)(F)F)cc1)C(=O)Cn1cc(NC(=O)CCOc2ccccc2)cn1 [Compound 30, N-(1-(2-(Methyl(2-(4-(trifluoromethyl)phenoxy)ethyl)amino)-2-oxoethyl)-1H-pyrazol-4-yl)-3-phenoxypropanamide hydrochloride] | ≥ 50
18 | Cc1ccc(OCCN(C)C(=O)Cn2cc(NC(=O)COc3ccccc3)cn2)cc1 [Compound 44] | 30 to 50
19 | COc1ccc(OCCNC(=O)Cn2cc(NC(=O)CCOc3ccccc3)cn2)cc1 [Compound 42] | < 30
20 | CN(CCOc1ccccc1)C(=O)Cn1cc(NC(=O)CCOc2ccccc2)cn1 [Compound 29, N-(1-(2-(Methyl(2-phenoxyethyl)amino)-2-oxoethyl)-1H-pyrazol-4-yl)-3-phenoxypropanamide hydrochloride] | < 30
21 | Cc1ccc(OCCN(C)C(=O)Cn2cc(NC(=O)CCOc3ccc(CO)cc3)cn2)cc1 [Compound 35] | ≥ 50
22 | Cc1ccc(OCCNC(=O)Cn2cc(NC(=O)CCOc3ccccc3)cn2)cc1 [Compound 41] | < 30
23 | Cc1ccc(CN(C)C(=O)Cn2cc(NC(=O)CCOc3ccccc3)cn2)cc1 [Compound 43] | < 30
24 | Cc1ccc(OCCN(C)C(=O)Cn2cc(NC(=O)CCCc3ccccc3)cn2)cc1 [Compound 53] | 30 to 50
25 | Cc1ccc(OCCN(C)C(=O)C(C)n2cc(NC(=O)CCOc3ccccc3)cn2)cc1 (centres unmarked) [Compound 46] | 30 to 50
26 | Cc1ccc(OCCN(C)C(=O)Cn2cc(NC(=O)Cc3ccccc3)cn2)cc1 [Compound 26, N-Methyl-2-(4-(2-phenylacetamido)-1H-pyrazol-1-yl)-N-(2-(p-tolyloxy)ethypacetamide hydrochloride] | < 30

From US20240092757A1, “HETEROARYL DIAMIDE IRE1/XBP1s ACTIVATORS” (Protego Biopharma, Inc., priority 2021, published 2024)
